Entries after “also recorded” stand apart in the source; their conditions may differ. Read-outs that look alike come from different tables or passages of the source.
Columns and labels:
CVB5 [1] = test: microbe, parasite or virus in culture; type: cell-based, human enterovirus B (coxsackievirus B5); settings: Enterovirus B, CVB5, Vero 76, read-out: CVB5 EC50
YFV = test: microbe, parasite or virus in culture; type: cell-based; settings: Yellow fever virus, BHK-21, read-out: YFV EC50
RSV = test: microbe, parasite or virus in culture; type: cell-based; settings: human respiratory syncytial virus, Vero 76, read-out: RSV EC50
VV = test: microbe, parasite or virus in culture; type: cell-based; settings: Orthopoxvirus vaccinia, Vero 76, read-out: VV EC50
[2] = Cytotoxicity in mock-infected MDBK cells (MTT); settings: cattle (Bos taurus), mock-infected
[3] = Cytotoxicity in mock-infected BHK-21 monolayers (MTT); settings: Syrian hamster (Mesocricetus auratus)
BVDV = test: microbe, parasite or virus in culture; type: cell-based; settings: Bovine viral diarrhea virus isolates and strains, MDBK, read-out: BVDV EC50
VSV = test: microbe, parasite or virus in culture; type: cell-based; settings: Vesicular stomatitis virus, Vero 76, read-out: VSV EC50
Reo-1 = test: microbe, parasite or virus in culture; type: cell-based, Reovirus type-1; settings: Reovirus sp., BHK-21, read-out: Reo-1 EC50
HSV-1 = test: microbe, parasite or virus in culture; type: cell-based, human herpesvirus 1; settings: Human alphaherpesvirus 1, Vero 76, read-out: HSV-1 EC50
[4] = Cytotoxicity in mock-infected Vero-76 monolayers; settings: African green monkey (Cercopithecus aethiops)
Sb-1 = test: microbe, parasite or virus in culture; type: cell-based, human enterovirus C (poliovirus type-1); settings: Enterovirus C, Vero 76, read-out: Sb-1 EC50
CVB = settings: cited from earlier work
CVB5 [5] = test: Cell pre-treatment assay (viral yield by plaque assay); type: cell-based, human enterovirus B (coxsackievirus B5); settings: Vero-76 pre-treated 2 h with 20 µM, then CVB5; not treated control 3 × 10^5 PFU/mL
CVB5 virions = test: Virucidal activity assay; type: cell-based, human enterovirus B (coxsackievirus B5); settings: 20 µM, 4 °C or 37 °C
CVB5 [6] = test: Time of addition assay; type: cell-based, human enterovirus B (coxsackievirus B5); settings: 20 µM
[7] = BHK-21 cell monolayers, mock-infected
[8] = Vero-76 cell monolayers, mock-infected
[9] = African green monkey (Cercopithecus aethiops)

Compound	EC50 (CVB5 [1])	EC50 (YFV)	EC50 (RSV)	melting point	EC50 (VV)	CC50 [2]	CC50 [3, 7]	EC50 (BVDV)	EC50 (VSV)	EC50 (Reo-1)	EC50 (HSV-1)	CC50 [4, 8]	EC50 (Sb-1)	other results
Cc1cc2nn(Cc3ccc(N)cc3)nc2cc1C [11b]	6 µM	> 100 µM	> 100 µM	169 to 171 °C	> 100 µM	> 100 µM	> 100 µM	> 100 µM	> 100 µM	> 100 µM	> 100 µM	> 100 µM	> 100 µM	
Nc1ccc(Cn2nc3cc(F)c(F)cc3n2)cc1 [11d]	7.6 ± 1.9 µM	> 100 µM	> 100 µM	149 to 150 °C	> 100 µM	> 100 µM	> 100 µM	> 100 µM	> 100 µM	> 100 µM	> 100 µM	> 100 µM	> 100 µM	
CC(=O)Nc1ccc(Cn2nnc3ccccc32)cc1 [79c]	> 72 µM	> 86 µM	> 9 µM	187 to 189 °C	> 72 µM	44 µM	86 µM	> 44 µM	> 72 µM	> 86 µM	> 72 µM	72 µM	> 72 µM	CC50 ([4]; Vero-76 cells): 9 µM
CCCNC(=O)Nc1ccc(Cn2nnc3cc(C)c(C)cc32)cc1 [99b]	16 µM	> 100 µM	> 100 µM	190 to 192 °C	> 100 µM	> 100 µM	> 100 µM	> 100 µM	> 100 µM	> 100 µM	> 100 µM	> 100 µM	> 100 µM	
O=C(CCC(=O)Nc1ccc(-n2nnc3cc(Cl)c(Cl)cc32)cc1)Nc1ccc(-n2nnc3cc(Cl)c(Cl)cc32)cc1 [A, N1,N4-bis(4-(5,6-dichloro-1H-benzo[d][1,2,3]triazol-1-yl)phenyl)succinamide]														activity against CVB (in words) (CVB): not active
Cc1cc2nnn(Cc3ccc(NC(=O)NC4CCCCC4)cc3)c2cc1C [100b]	50 µM	> 100 µM	> 100 µM	216 to 218 °C		> 100 µM	> 100 µM	> 100 µM	> 100 µM	> 100 µM	> 100 µM	> 100 µM	> 100 µM	
Cc1cc2nn(Cc3cccc(NC(=O)c4ccc(F)cc4)c3)nc2cc1C [25b]	47 ± 2.2 µM	> 100 µM	> 100 µM	211 to 212 °C	> 100 µM	> 100 µM	> 100 µM	> 100 µM	> 100 µM	> 100 µM	> 100 µM	> 100 µM	> 100 µM	
COc1cc(C(=O)Nc2cccc(Cn3nnc4cc(Cl)c(Cl)cc43)c2)cc(OC)c1OC [41a]	18.5 ± 2.1 µM	> 100 µM	> 10.5 µM	142 to 144 °C	> 100 µM	> 100 µM	> 100 µM	> 100 µM	> 100 µM	> 7 µM	> 100 µM	> 100 µM	> 100 µM	CC50 ([3]; BHK-21 cells): 7 µM; CC50 ([4]; Vero-76 cells): 10.5 µM
CC(C)(C)C(=O)Nc1ccc(Cn2nnc3c(F)cccc32)cc1 [18e, N-(4-((4-fluoro-1H-benzo[d][1,2,3]triazol-1-yl)methyl)phenyl)pivalamide]	12.4 ± 0.6 µM	> 100 µM	> 9 µM		> 100 µM	> 100 µM	> 100 µM	> 100 µM	> 100 µM	> 100 µM	52 ± 9.2 µM	> 100 µM	> 100 µM	viral load after cell pre-treatment (CVB5 [5]): 7× 10^4 PFU/mL; virucidal effect on CVB5 titer (in words) (CVB5 virions): no virucidal activity; also recorded: no difference between the titers; % Late apoptotic cells (Vero-76 cells): 8.3 ± 0.34%; % Live cells (Vero-76 cells): 72.87 ± 1.21%; % Necrotic cells (Vero-76 cells): 12.44 ± 2.35%; % Late apoptotic cells (Vero-76 cells; [9]): 1.03 ± 0.34%; % Live cells (Vero-76 cells; [9]): 94.45 ± 2.55%; % Necrotic cells (Vero-76 cells; [9]): 4.12 ± 2.3%; CC50 ([4]; Vero-76 cells): 9 µM; antiviral effect, compound added during the infection period (in words) (CVB5 [6]; Vero-76, CVB5 m.o.i. 1): antiviral effect was kept; titer reduction, compound added during subsequent steps of the replication cycle (in words) (CVB5 [6]; Vero-76, CVB5 m.o.i. 1, post infection): No titer reduction; TEER values versus control (in words) (Caco-2 cell monolayers): did not significantly differ from control values
COc1cc(C(=O)Nc2ccc(Cn3nnc4c(F)cccc43)cc2)cc(OC)c1OC [21e]	> 100 µM		20 ± 2 µM	177 to 179 °C	> 100 µM	72 µM	60 µM		> 100 µM		> 100 µM	> 100 µM	> 100 µM	
O=c1cnn([C@@H]2O[C@H](CO)[C@@H](O)[C@H]2O)c(=O)[nH]1 [6az-ur, 6-azauridine, reference compound]		46 ± 2.5 µM	1.1 ± 0.4 µM				> 100 µM					9.3 ± 1.6 µM		
CCCCNC(=O)Nc1cccc(Cn2nc3cc(C)c(C)cc3n2)c1 [32b]	> 100 µM	> 100 µM	> 100 µM	288 to 289 °C	> 100 µM	> 100 µM	> 100 µM		> 100 µM	> 100 µM	> 100 µM	> 100 µM	85 µM	
O=C(Nc1cccc(Cn2nnc3cc(Cl)c(Cl)cc32)c1)c1ccc(Cl)cc1 [43a, N-(3-((5,6-dichloro-1H-benzo[d][1,2,3]triazol-1-yl)methyl)phenyl)-4-chlorobenzamide]	9 ± 1.6 µM	> 100 µM	> 9.2 µM		> 100 µM	> 100 µM	> 100 µM	> 100 µM	> 100 µM	> 100 µM	> 100 µM	> 100 µM	> 100 µM	CC50 ([4]; Vero-76 cells): 9.2 µM; TEER values versus control (in words) (Caco-2 cell monolayers): did not significantly differ from control values
C[C@@]1(O)[C@H](O)[C@@H](CO)O[C@H]1n1ccc(N)nc1=O [NM107, 2’-C-methylcytidine, reference compound]							> 100 µM			6 ± 2.1 µM				
O=C(CCC(=O)Nc1ccc(Cn2nnc3cc(Cl)c(Cl)cc32)cc1)Nc1ccc(Cn2nnc3cc(Cl)c(Cl)cc32)cc1 [B, N1,N4-bis(4-((5,6-dichloro-1H-benzo[d][1,2,3]triazol-1-yl)methyl)phenyl)succinamide]														EC50 (CVB): 23 µM
Nc1cccc(Cn2nnc3cc(Cl)c(Cl)cc32)c1 [6a]	52 ± 3.6 µM		> 100 µM	161 to 162 °C	62.5 ± 16.2 µM	> 100 µM	57 µM	> 100 µM	> 100 µM		> 100 µM	> 100 µM	> 100 µM	
